Measured values as given in patent US20250213475A1, “LIPOSOMAL COMPOSITIONS” (R.G.C.C. Holdings AG, priority 2022, published 2025).

Legend:
[1] = Encapsulation efficacy, indirect from free drug in supernatant by UV/VIS; assay type: physicochemical; conditions: analogue 1 mg/mL
Experimental: At the end of the above encapsulation process, the solution was centrifuged at 15.000 rpm for 20 minutes and the supernatant was kept for indirect encapsulation determination. The precipitate was lyophilized and kept for further analysis and characterization.
The supernatants after each centrifugation were kept and used to evaluate the amount of the free drug. Subtracting the amount of the free drug at the supernatant from the total added drug, the rest is considered as encapsulated. Briefly, from each solution samples were collected in order to prepare solutions, which were then evaluated with UV/VIS spectrometry. Based on standard curves, in which the different nucleosides were measured in solution on a UV-VIS spectrometer, different the remaining quantity was calculated. The encapsulation efficacy was measured then based on the following equation:
[formula] Quantity of the Nucleoside Analogue in the liposome=(Quantity of the Nucleoside Analogue initially added−Quantity of the Nucleoside Analogue in the supernatant).
For example, for {[2-(6-amino-9H-purin-9-yl)quinazolin-4-yl]oxy}phosphonic acid system code 1, after the centrifugation, we keep the supernatant from which, a fraction is collected to prepare a solution with targeted concertation of 10 ppm. Based on the Dilution Equation, C1V1=C2V2, C1=1000, because we consider, at the initial solution that the concentration is 1000 ppm (based on the fact that all of the added nucleoside analogue would be in the supernatant) • C2: is the targeted concentration, here 10 ppm • V2: volume of the final solution, here 10 mL
Thus, we take 100 uL from the supernatant and we dilute it to 10 mL final volume. The sample is quantified by UV/VIS spectrometry and we calculate the actual concentration of the sample. The concentration is converted to mass and we can estimate the final mass of the nucleoside analogue in the supernatant and in the liposome.

[2] = system: human lung cancer COLO699N cell line; assay: AlamarBlue cytotoxicity assay, COLO699N; assay type: cell-based; conditions: 0.01 μM to 10 μM, 24 h, 48 h and 72 h
Experimental: (§1) All cell lines were maintained at 37° C. in a humidified 5% CO2 atmosphere. AlamarBlue assay was performed to assess cell viability. The viable cells were seeded at a density of 2×10^4 (200 μl/well) in 96-well plate and incubated at 37° C. and 5% CO2 for 24 h to form a cell monolayer. After 24 h of incubation, supernatant on the monolayer was aspirated and 200 μl of medium and varying concentrations of the substances were added and incubated for 24 h, 48 h and 72 h time points. […] Fluorescence was measured at 560 nm excitation and 590 nm emission wavelength. The experiment was performed in triplicates. The average fluorescence was calculated for each triplicate. One sample t-test was used to determine differences in the mean by comparing the treated samples with the untreated controls. P values <0.05 were considered to indicate a statistically significant difference.

[3] = system: human breast adenocarcinoma (triple negative) MDA-MB-231 cell line; assay: AlamarBlue cytotoxicity assay, MDA-MB-231; assay type: cell-based; conditions: MDA-MB-231, 0.01 μM to 10 μM, 24 h, 48 h and 72 h
Experimental: The human breast adenocarcinoma (luminal type) MCF7 cell line (ECACC 86012803), human breast adenocarcinoma (triple negative) MDA-MB-231 cell line (ECACC 92020424), human colorectal carcinoma HCT116 cell line (ECACC 91091005) and human lung cancer COLO699N cell line (ECACC 93052608) were culture in RPMI 1640 medium Catalog #R0883 (Sigma-Aldrich, Darmstadt, Germany) supplemented with 10% fetal bovine serum Catalog #FB-1001/500 (BioSera, Nuaille, France) and 1% L-glutamine Catalog #G7513-100ML (Sigma-Aldrich, Darmstadt, Germany). All cell lines were maintained at 37° C. in a humidified 5% CO2 atmosphere. AlamarBlue assay was performed to assess cell viability. The viable cells were seeded at a density of 2×10^4 (200 μl/well) in 96-well plate and incubated at 37° C. and 5% CO2 for 24 h to form a cell monolayer. After 24 h of incubation, supernatant on the monolayer was aspirated and 200 μl of medium and varying concentrations of the substances were added and incubated for 24 h, 48 h and 72 h time points. […] Fluorescence was measured at 560 nm excitation and 590 nm emission wavelength. […] The average fluorescence was calculated for each triplicate. […] Results were calculated using the Microsoft Excel 2016. […]

[4] = system: human breast adenocarcinoma (luminal type) MCF7 cell line; assay: AlamarBlue cytotoxicity assay, MCF7; assay type: cell-based; conditions: MCF7, 0.01 μM to 10 μM, 24 h, 48 h and 72 h
Experimental: as §1

[5] = system: human colorectal carcinoma HCT116 cell line; assay: AlamarBlue cytotoxicity assay, HCT116; assay type: cell-based; conditions: HCT116, 0.01 μM to 10 μM, 24 h, 48 h and 72 h
Experimental: as §1

[6] = liposomal system code 1, DSPE-PEG:CHOL:OA
[7] = liposomal system code 2, DSPE-PEG:CHOL
[8] = liposomal system code 3, DSPE-PEG:PC:CHOL
[9] = liposomal system code 4, DSPE-PEG:CHOL:OA:PC
[10] = liposomal system code 5, DSPE-PEG:OA

With Nc1ncnc2c1ncn2-c1nc(O)c2ccccc2n1 [2-(6-Amino-9H-purin-9-yl)quinazolin-4-ol, 2-(6-amino-9H-purin-9-yl)quinazolin-4-ol] the “Encapsulation Efficacy (EE %)” value [1, 6] was 55.2%, the “Encapsulation Efficacy (EE %)” value [1, 7] was 55.2% and the “Encapsulation Efficacy (EE %)” value [1, 8] was 65.1%. The “Encapsulation Efficacy (EE %)” value [1, 9] was 54.4%, the “Encapsulation Efficacy (EE %)” value [1, 10] was 65.6% and the “cytotoxic effect (in words)” value [2] was “no statistically significant cytotoxic effect”. The “cytotoxic effect (in words)” value [3] was “no statistically significant cytotoxic effect”, the “cytotoxic effect (in words)” value [4] was “no statistically significant cytotoxic effect” and the “cytotoxic effect (in words)” value [5] was “no statistically significant cytotoxic effect”.
With Nc1ccn(-c2nc(O)c3ccccc3n2)c(=O)n1 [4-amino-1-(4-hydroxyquinazolin-2-yl)-1,2-dihydropyrimidin-2-one] the “Encapsulation Efficacy (EE %)” value [1, 7] was 73.6% and the “Encapsulation Efficacy (EE %)” value [1, 8] was 76.2%.
With CC(=O)Nc1ccn(-c2nc(O)c3ccccc3n2)c(=O)n1 [N-[1-(4-hydroxyquinazolin-2-yl)-2-oxo-1,2-dihydropyrimidin-4-yl]acetamide] the “Encapsulation Efficacy (EE %)” value [1, 7] was 58.1% and the “Encapsulation Efficacy (EE %)” value [1, 8] was 89.9%.
With Nc1ncnc2c1ncn2-c1nc(OP(=O)(O)O)c2ccccc2n1 [{[2-(6-amino-9H-purin-9-yl)quinazolin-4-yl]oxy}phosphonic acid] the “Encapsulation Efficacy (EE %)” value [1, 6] was 60.8%, the “Encapsulation Efficacy (EE %)” value [1, 7] was 76.8% and the “Encapsulation Efficacy (EE %)” value [1, 8] was 50.0%. For the same molecule, the “Encapsulation Efficacy (EE %)” value [1, 9] was 60.8% and the “Encapsulation Efficacy (EE %)” value [1, 10] was 70.4%.
